From patent US20240000075A1, “FUNGICIDAL ARYL AMIDINES” (CORTEVA AGRISCIENCE LLC, priority 2020, published 2024)
Like-named read-outs stand apart in the source and are kept apart here.

Columns and labels:
Rhynchosporium commune = assay: Leaf blotch of barley, whole-plant fungicidal activity (RHYNSE); type: in vivo; conditions: 24 h, 1DP (1 day protectant), read-out: % Disease Control Rating RHYNSE
How it was run: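 Barley cv. 'Harrington' at full first-leaf emergence (7-10 seedlings per pot) was sprayed to run-off with compound in acetone plus nine volumes of water containing 110 ppm Triton X-100, air-dried, then inoculated with spore suspension. Plants spent two days in a dark dew room at 100% RH, then moved to greenhouse for disease development.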

Zymoseptoria tritici = assay: Septoria leaf blotch of wheat, whole-plant fungicidal activity (SEPTTR); type: in vivo, Zymoseptoria tritici on wheat plants (variety 'Yuma'); conditions: read-out: % Disease Control Rating SEPTTR
How it was run: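 Compounds in acetone, diluted with nine volumes of water containing 110 ppm Triton X-100, were sprayed to run-off on 'Yuma' wheat seedlings at full first-leaf emergence. Spore inoculation was 3 days before (3DC, curative) or 1 day after (1DP, protectant) treatment, then 3 days at 100% RH and greenhouse. First-leaf disease severity (0–100%) was scored relative to untreated plants as percent control.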

Puccinia triticina = assay: Wheat brown rust, whole-plant fungicidal activity (PUCCRT); type: in vivo, Puccinia triticina on wheat plants (variety 'Yuma'); conditions: 24 h, 1DP (1 day protectant), read-out: % Disease Control Rating PUCCRT
How it was run: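 Wheat 'Yuma' seedlings at first-leaf stage sprayed to run-off with compound from acetone stock diluted in nine volumes water containing 110 ppm Triton X-100, then inoculated with Puccinia triticina spores. Held overnight in dark dew room at 100% RH, then greenhouse for disease development.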

Phakopsora pachyrhizi = assay: Asian soybean rust, whole-plant fungicidal activity (PHAKPA); type: in vivo; conditions: read-out: % Disease Control Rating PHAKPA
How it was run: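 Ten-day-old 'Williams 82' soybean seedlings sprayed to run-off with compound in acetone/water (1:9, 0.011% Tween-20), air-dried, then inoculated; 24 h dark dew room at 100% RH, then growth room. Disease severity scored 0–100% on sprayed leaves; percent control relative to untreated plants.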

Compound	pest or weed control at 200 ppm (Rhynchosporium commune) [%]	melting point [°C]	pest or weed control at 200 ppm (Zymoseptoria tritici; 24 h, 1DP (1 day protectant)) [%]	pest or weed control at 200 ppm (Zymoseptoria tritici; 72 h, 3DC (3 day curative)) [%]	pest or weed control at 200 ppm (Puccinia triticina) [%]	pest or weed control at 200 ppm (Phakopsora pachyrhizi; 24 h, 1DP (1 day protectant)) [%]	pest or weed control at 200 ppm (Phakopsora pachyrhizi; 72 h, 3DC (3 day curative)) [%]
CCN(C)/C=N/c1cc(C)c(C(=O)Cc2ccccc2C)cc1C [Compound 1]	> 85	101 to 105	< 20	20 to 50	> 85	> 85	> 85
CCN(C)/C=N/c1cc(C)c(C(=O)Cc2ccccc2)cc1C [Compound 2]	> 85	43 to 46	20 to 50	< 20	> 85	> 85	> 85
CCN(C)/C=N/c1cc(C)c(C(=O)CC2CCCCC2)cc1C [Compound 3]	> 85	69 to 71	> 85	20 to 50	> 85	> 85	> 85
CCN(C)/C=N/c1cc(C)c(C(=O)Cc2cccc(C(F)(F)F)c2)cc1C [Compound 5]	> 85	73 to 76	20 to 50	< 20	> 85	> 85	> 85
CCN(C)/C=N/c1cc(C)c(C(=O)Cc2ccc(C)cc2F)cc1C [Compound 7]	> 85	102 to 105	20 to 50	< 20	> 85	> 85	> 85
CCN(C)/C=N/c1cc(C)c(C(=O)Cc2ccc(OC(F)(F)F)cc2)cc1C [Compound 8]	> 85	70 to 74	50 to 85	20 to 50	> 85	> 85	> 85
CCN(C)/C=N/c1ccc(C(=O)Cc2cccc(C(F)(F)F)c2)c(C)c1C [Compound 10]	20 to 50	53 to 57	< 20	< 20	< 20	> 85	> 85
CCN(C)/C=N/c1ccc(C(=O)CCC(F)(F)F)c(C)c1C [Compound 13]	< 20	52 to 56	< 20	< 20	< 20	50 to 85	> 85
Cc1cc(C(=O)CC2CCCC2)c(C)cc1/N=C/N1CCCCC1 [Compound 80]	> 85		50 to 85	< 20	> 85	> 85	> 85
Cc1cc(C(=O)Cc2c(F)cc(F)cc2F)c(C)cc1/N=C/N1CCCCC1 [Compound 81]	< 20		< 20	< 20	> 85	50 to 85	
Cc1cc(C(=O)CC2CCCC2)c(C)cc1/N=C/N(C)C(C)C [Compound 82]	> 85		> 85	< 20	> 85	> 85	> 85
CCN(C)/C=N/c1cc(C)c(C(=O)Cc2ccccc2OC(F)F)cc1C [Compound 83]	> 85		< 20	< 20	> 85	> 85	> 85
CCN(C)/C=N/c1cc(C)c(C(=O)Cc2cccc(OC(F)F)c2)cc1C [Compound 84]	> 85		< 20	< 20	> 85	> 85	> 85
CCN(C)/C=N/c1cc(C)c(C(=O)Cc2ccc(OC(F)F)cc2)cc1C [Compound 85]	> 85		> 85	20 to 50	> 85	> 85	> 85
CCN(C)/C(C)=N/c1cc(C)c(C(=O)Cc2c(F)cc(F)cc2F)cc1C [Compound 86]	< 20		< 20	< 20	> 85	> 85	> 85
CC/C(=N\c1cc(C)c(C(=O)Cc2c(F)cc(F)cc2F)cc1C)N(C)CC [Compound 87]	< 20		< 20	< 20	> 85	50 to 85	20 to 50
Cc1cc(C(=O)Cc2c(F)cc(F)cc2F)c(C)cc1/N=C1\CCCCN1C [Compound 88]	< 20		< 20	< 20	50 to 85	50 to 85	> 85
CCN(C)/C=N/c1cc(C)c(C(=O)Cc2c(F)cc(F)cc2F)cc1OC [Compound 89]	20 to 50		< 20	< 20	> 85	50 to 85	20 to 50
CCN(C)/C(C)=N/c1cc(C)c(C(=O)CC2CCCC2)cc1C [Compound 90]	20 to 50		< 20	< 20	> 85	> 85	> 85
CC/C(=N\c1cc(C)c(C(=O)CC2CCCC2)cc1C)N(C)CC [Compound 91]	< 20		< 20	< 20	> 85	> 85	> 85
Cc1cc(C(=O)CC2CCCC2)c(C)cc1/N=C1\CCCCN1C [Compound 92]	20 to 50		< 20	< 20	> 85	50 to 85	50 to 85
CCN(C)/C(S)=N/c1cc(C)c(C(=O)Cc2c(F)cc(F)cc2F)cc1C [Compound 93]	> 85		50 to 85	< 20	> 85	> 85	> 85
CCN(C)/C(S)=N/c1cc(C)c(C(=O)CC2CCCC2)cc1C [Compound 94]	> 85		> 85	< 20	> 85	> 85	> 85
